Measurements taken from paper PMC11589570, “Critical assessment of LC3/GABARAP ligands used for degrader development and ligandability of LC3/GABARAP binding pockets” (Nature Communications, 2024).
Where “and” joins values, the source holds several entries; their conditions need not be identical. Equal entries are not always repeated.

Assays:
[1] = target: GABARAP (Homo sapiens, UniProt O95166); experiment: FP assay with Cy5-labelled p62 LIR tracer (protein titration and tracer displacement); format: binding; settings: for normalized FP signal, p62 LIR tracer displacement: GABARAP; for compound titration GABARAP (displacement curve, FP signal): two replicate columns per compound
GABARAP, sequence (O95166 1-116): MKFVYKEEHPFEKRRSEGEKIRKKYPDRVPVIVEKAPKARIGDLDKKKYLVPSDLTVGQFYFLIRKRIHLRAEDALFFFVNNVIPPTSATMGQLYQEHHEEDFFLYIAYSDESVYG

[2] = target: LC3C (Homo sapiens, UniProt Q9BXW4); experiment: as above; format: binding; settings: for normalized FP signal, p62 LIR tracer displacement: LC3C; for compound titration LC3C (displacement curve, FP signal): two replicate columns per compound
LC3C, sequence (Q9BXW4 1-126): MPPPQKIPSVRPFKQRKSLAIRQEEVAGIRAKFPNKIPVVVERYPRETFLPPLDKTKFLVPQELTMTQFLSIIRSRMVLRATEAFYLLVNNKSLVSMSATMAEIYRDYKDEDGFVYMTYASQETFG

[3] = tested on: RPE-1 GFP-LC3B-RPF-LC3∆G reporter cell line; experiment: Autophagy flux assay; format: cell-based; settings: rebuttal letter
Excerpt: LC3/GABARAP in vitro, but no attempts are made to replicate the previously reported cellular activity of these compounds. It would be beneficial to know whether these compounds have any effect on autophagy in the authors’ hands, and therefore could act by alternative mechanisms, or whether they […]
Response: We were very concerned that the ligands used for ATTEC development might induce general toxicity in cell lines, as they are based on drugs used in oncology (such as the kinesin inhibitor 10O5) and the isoxazole scaffold often used in the development of multi-targeted kinase inhibitors. However, we have now investigated compounds 1-4 in autophagy flux assays using the RPE-1 GFP-LC3B-RPF-LC3∆G reporter cell line (single clone) as […]
reported in [PMID:37558952].
(RR_Figure 6). The authors of the first manuscript reporting these ligands [PMID: 31666698]
However, due to the potent activity of 8F20 on KIF11, which will have profound effects on cell trafficking and growth, and DCAF11 (AN1, [PMID: 38036533]), we find it unlikely that the effects on autophagy are due to LC3/GABARAP modulation. Due to the lack of target (LC3/GABARAP) binding in vitro and the […]
of this review but have excluded the data in the manuscript.
RR_figure 5: Autophagy flux measurement for 10O5 and AN2. No induction of autophagy or effects (right panels, assessed by Incucyte (Sartorius) life cell imaging) on cell growth was […]
RR_figure 6: Autophagy flux measurement for 8F20 and AN1 show changes in autophagy flux […]
It is not clear how many biological replicates have been performed. For example, the figure legends […]

[4] = target: GABARAPL2 (Homo sapiens, UniProt P60520); experiment: FP assay with Cy5-labelled p62 LIR tracer (protein titration and tracer displacement); settings: GABARAPL2
GABARAPL2, sequence (P60520 whole entry): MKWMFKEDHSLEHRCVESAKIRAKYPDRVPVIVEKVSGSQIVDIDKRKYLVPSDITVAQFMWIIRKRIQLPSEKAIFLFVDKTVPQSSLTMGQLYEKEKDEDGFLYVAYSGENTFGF

[5] = target: GABARAPL1 (Homo sapiens, UniProt Q9H0R8); experiment: as above; format: binding; settings: for normalized FP signal, p62 LIR tracer displacement: GABARAPL1; for compound titration GABARAPL1 (displacement curve, FP signal): two replicate columns per compound; for FP tracer displacement curve signal (compound titration): duplicate values
GABARAPL1, sequence (Q9H0R8 whole entry): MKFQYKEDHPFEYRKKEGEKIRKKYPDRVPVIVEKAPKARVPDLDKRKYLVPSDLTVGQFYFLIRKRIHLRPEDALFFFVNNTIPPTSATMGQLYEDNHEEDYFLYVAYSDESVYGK

[6] = log10 concentration [M] -3.82391, listed as 8F20
[7] = log10 concentration [M] -4.1549, listed as 8F20
[8] = log10 concentration [M] -4.60206, listed as 8F20
[9] = log10 concentration [M] -5, listed as 8F20
[10] = log10 concentration [M] -5.30103, listed as 8F20
[11] = log10 concentration [M] -5.69897, listed as 8F20
[12] = log10 concentration [M] -6.22185, listed as 8F20
[13] = log10 concentration [M] -6.69897, listed as 8F20
[14] = log10 concentration [M] -7.30103, listed as 8F20
[15] = log10 concentration [M] -7.79588
[16] = log10 concentration [M] -8.08092, listed as 8F20
[17] = log10 concentration [M] -3.82391
[18] = log10 concentration [M] -4.1549
[19] = log10 concentration [M] -4.60206
[20] = log10 concentration [M] -5.30103
[21] = log10 concentration [M] -5.69897
[22] = log10 concentration [M] -6.22185
[23] = log10 concentration [M] -6.69897
[24] = log10 concentration [M] -7.30103
[25] = log10 concentration [M] -8.08092
[26] = log10 concentration [M] -7.79588, listed as 8F20

## Cc1ccc(C(=O)N(CCCN)[C@@H](c2nc3cc(Cl)ccc3c(=O)n2Cc2ccccc2)C(C)C)cc1 [compound 3, (R)-N-(3-aminopropyl)-N-(1-(3-benzyl-7-chloro-4-oxo-3,4-dihydroquinazolin-2-yl)−2-methylpropyl)−4-methylbenzamide]
[1]; [6]
  normalized FP signal, p62 LIR tracer displacement: 89.6552 and 90.5172
[1]; [7]
  normalized FP signal, p62 LIR tracer displacement: 93.7931 and 93.9655
[1]; [8]
  normalized FP signal, p62 LIR tracer displacement: 101.379 and 97.931
[1]; [9]
  normalized FP signal, p62 LIR tracer displacement: 97.4138 and 100.172
[1]; [10]
  normalized FP signal, p62 LIR tracer displacement: 96.2069 and 97.931
[1]; [11]
  normalized FP signal, p62 LIR tracer displacement: 90 and 89.6552
[1]; [12]
  normalized FP signal, p62 LIR tracer displacement: 96.2069 and 96.5517
[1]; [13]
  normalized FP signal, p62 LIR tracer displacement: 96.5517 and 96.3793
[1]; [14]
  normalized FP signal, p62 LIR tracer displacement: 100 and 98.2759
[1]; [15]
  normalized FP signal, p62 LIR tracer displacement: 95.5172
  compound titration GABARAP (displacement curve, FP signal): 95.5172
[1]; [16]
  normalized FP signal, p62 LIR tracer displacement: 97.069 and 98.1034
[1]; [17]
  compound titration GABARAP (displacement curve, FP signal): 89.6552 and 90.5172
[1]; [18]
  compound titration GABARAP (displacement curve, FP signal): 93.7931 and 93.9655
[1]; [19]
  compound titration GABARAP (displacement curve, FP signal): 101.379 and 97.931
[1]; log10 concentration [M] -5
  compound titration GABARAP (displacement curve, FP signal): 97.4138 and 100.172
[1]; [20]
  compound titration GABARAP (displacement curve, FP signal): 96.2069 and 97.931
[1]; [21]
  compound titration GABARAP (displacement curve, FP signal): 90 and 89.6552
[1]; [22]
  compound titration GABARAP (displacement curve, FP signal): 96.2069 and 96.5517
[1]; [23]
  compound titration GABARAP (displacement curve, FP signal): 96.5517 and 96.3793
[1]; [24]
  compound titration GABARAP (displacement curve, FP signal): 100 and 98.2759
[1]; [25]
  compound titration GABARAP (displacement curve, FP signal): 97.069 and 98.1034
[2]; [6]
  normalized FP signal, p62 LIR tracer displacement: 89.8 and 92.8
[2]; [7]
  normalized FP signal, p62 LIR tracer displacement: 92.6 and 95.4
[2]; [8]
  normalized FP signal, p62 LIR tracer displacement: 97.8 and 100.8
[2]; [9]
  normalized FP signal, p62 LIR tracer displacement: 94.6 and 96.4
[2]; [10]
  normalized FP signal, p62 LIR tracer displacement: 98.8 and 92.6
[2]; [11]
  normalized FP signal, p62 LIR tracer displacement: 85.8 and 92.2
[2]; [12]
  normalized FP signal, p62 LIR tracer displacement: 93.8 and 95
[2]; [13]
  normalized FP signal, p62 LIR tracer displacement: 99.2 and 96.4
[2]; [14]
  normalized FP signal, p62 LIR tracer displacement: 101 and 100.8
[2]; [15]
  normalized FP signal, p62 LIR tracer displacement: 94.6
  compound titration LC3C (displacement curve, FP signal): 93.4 and 94.6
[2]; [26]
  normalized FP signal, p62 LIR tracer displacement: 93.4
[2]; [16]
  normalized FP signal, p62 LIR tracer displacement: 95.2 and 100.4
[2]; [17]
  compound titration LC3C (displacement curve, FP signal): 89.8 and 92.8
[2]; [18]
  compound titration LC3C (displacement curve, FP signal): 92.6 and 95.4
[2]; [19]
  compound titration LC3C (displacement curve, FP signal): 97.8 and 100.8
[2]; log10 concentration [M] -5
  compound titration LC3C (displacement curve, FP signal): 94.6 and 96.4
[2]; [20]
  compound titration LC3C (displacement curve, FP signal): 98.8 and 92.6
[2]; [21]
  compound titration LC3C (displacement curve, FP signal): 85.8 and 92.2
[2]; [22]
  compound titration LC3C (displacement curve, FP signal): 93.8 and 95
[2]; [23]
  compound titration LC3C (displacement curve, FP signal): 99.2 and 96.4
[2]; [24]
  compound titration LC3C (displacement curve, FP signal): 101 and 100.8
[2]; [25]
  compound titration LC3C (displacement curve, FP signal): 95.2 and 100.4
[3]
  autophagy induction (autophagy flux): significant autophagy activation
  effects on cell growth (Incucyte life cell imaging): profound effects on cell growth
[4]; [6]
  normalized FP signal, p62 LIR tracer displacement: 94 and 100
[4]; [7]
  normalized FP signal, p62 LIR tracer displacement: 98.4 and 97.2
[4]; [8]
  normalized FP signal, p62 LIR tracer displacement: 98.4 and 102.4
[4]; log10 concentration [M] -5
  normalized FP signal, p62 LIR tracer displacement: 103.2
[4]; [10]
  normalized FP signal, p62 LIR tracer displacement: 100.4 and 101.6
[4]; [11]
  normalized FP signal, p62 LIR tracer displacement: 96.8 and 92
[4]; [12]
  normalized FP signal, p62 LIR tracer displacement: 103.6 and 100.4
[4]; [13]
  normalized FP signal, p62 LIR tracer displacement: 101.2 and 96
[4]; [14]
  normalized FP signal, p62 LIR tracer displacement: 107.2 and 97.6
[4]; [26]
  normalized FP signal, p62 LIR tracer displacement: 97.2 and 95.6
[4]; [16]
  normalized FP signal, p62 LIR tracer displacement: 101.2 and 103.6
[5]; [6]
  normalized FP signal, p62 LIR tracer displacement: 96.5714 and 97.4286
[5]; [7]
  normalized FP signal, p62 LIR tracer displacement: 97.2857 and 99
[5]; [19]
  normalized FP signal, p62 LIR tracer displacement: 101
  compound titration GABARAPL1 (displacement curve, FP signal): 101
[5]; [9]
  normalized FP signal, p62 LIR tracer displacement: 101.143 and 102
[5]; [20]
  normalized FP signal, p62 LIR tracer displacement: 100.143
[5]; [11]
  normalized FP signal, p62 LIR tracer displacement: 94.7143 and 94.5714
  FP tracer displacement curve signal (compound titration): 94.7143 and 94.5714
[5]; [12]
  normalized FP signal, p62 LIR tracer displacement: 98.2857 and 100.429
  FP tracer displacement curve signal (compound titration): 98.2857 and 100.429
[5]; [13]
  normalized FP signal, p62 LIR tracer displacement: 99.7143 and 102.286
  FP tracer displacement curve signal (compound titration): 99.7143 and 102.286
[5]; [14]
  normalized FP signal, p62 LIR tracer displacement: 103.571 and 102.286
  FP tracer displacement curve signal (compound titration): 103.571 and 102.286
[5]; [26]
  normalized FP signal, p62 LIR tracer displacement: 96.8571 and 101.571
  FP tracer displacement curve signal (compound titration): 96.8571 and 101.571
[5]; [16]
  normalized FP signal, p62 LIR tracer displacement: 99.1429 and 98.1429
  FP tracer displacement curve signal (compound titration): 99.1429 and 98.1429
[5]; [17]
  compound titration GABARAPL1 (displacement curve, FP signal): 96.5714 and 97.4286
[5]; [18]
  compound titration GABARAPL1 (displacement curve, FP signal): 97.2857 and 99
[5]; log10 concentration [M] -5
  compound titration GABARAPL1 (displacement curve, FP signal): 101.143 and 102
